Reference: patent US9408392B2, “Compounds” (SYNGENTA PARTICIPATIONS AG, priority 2012, dated 2016)
Several values for one entry are separate records, joined by “and”; a condition that tells them apart may be missing. Identical values can stand only once.

Key:
[1] = test system: Meloidogyne spp. (Root-knot nematode); experiment: Meloidogyne spp. (Root-knot nematode) contact activity, preventive, pouch test (Biological Screen Nem 1); assay type: in vivo; conditions: cucumber cv. Toshka, test solutions at 200 ppm, 3000 eggs, assessed after twelve days, cis vs trans isomers
Procedure: Meloidogyne spp. (Root-knot nematode) contact activity, preventive. Pouch test. Filter papers (9 cm×4.5 cm) with a small pocket were placed into plastic pouches (12 cm×6 cm). One cucumber cv. Toshka seed was placed in the centre of the filter paper pocket of all the pouches needed for a test. The cucumber seeds in the pouches were treated with test solutions at 200 ppm by pipetting the solution directly over the cucumber seed in the filter paper pocket in the pouch. Prior to application, the compound solution was prepared at twice the concentration required and the egg suspension is prepared with FORL nutrient solution with 3000 eggs/0.5 ml. After applying all the treatments, 3000 eggs (in 0.5 ml of FORL nutrient solution) were pipetted into the pouches. The pouches were incubated in a moist chamber for twelve days and watered regularly to maintain good filter paper moisture essential for the growing cucumber root system. After this period, the filter paper containing the germinated cucumber seedling was removed from the plastic pouch to assess the number of galls caused by Meloidogyne spp. per root system. Biological Screen Nem 1. Meloidogyne spp. (Root-knot nematode) contact activity, preventive. Pouch test. Values are given in % galling.

M. incognita = experiment: Meloidogyne spp. (Root-knot nematode) contact activity, preventive, drench test (Biological Screen Nem 2); assay type: in vivo; conditions: cucumber cv. Toshka in pots, WP10 suspension at 20 ppm, 3000 eggs of M. incognita, harvested after fourteen days, Zeck's gall index, cis vs trans isomers
Procedure: Meloidogyne spp. (Root-knot nematode) contact activity, preventive, drench test. Cucumber cv. Toshka seeds were shown directly into pots filled with a sandy substrate. Six days later pots were each treated with 5 ml of a WP10 suspension of the test compound at 20 ppm. Hereafter pots were inoculated with 3000 eggs of M. incognita. The trial was harvested fourteen days after trial application and inoculation. Root galling was assessed according to Zeck's gall index (Zeck, 1971). Biological Screen Nem 2. Meloidogyne spp. (Root-knot nematode) contact activity, preventive, drench test. Values are given in % galling.

SMILES | Nem 1 (% galling) [1] | Nem 2 (% galling) (M. incognita) | melting point
O=C(N[C@@H]1C[C@@H]1c1ccc(C(F)(F)F)cc1)c1ccccc1C(F)(F)F (racemic) [Compound 67-026] | 64% | 82% | 
O=C(N[C@@H]1C[C@@H]1c1ccc(Cl)cc1Cl)c1ccccc1C(F)(F)F (racemic) [Compound 67-014] | 100% | 98% | 
C[C@H]1C(NC(=O)c2c(F)cccc2F)[C@H]1c1ccc(F)cc1 (mixture of isomers) [Compound 68.003, 2,6-difluoro-N-[(1R,2R,3R)-2-(4-fluorophenyl)-3-methyl-cyclopropyl]benzamide] |  |  | 90 to 96 °C
O=C(N[C@@H]1C[C@@H]1c1ccc(OC(F)F)cc1)c1ccccc1C(F)(F)F (relative stereo) [Compound 67-011, N-[cis-2-(4-difluoromethoxy-phenyl)-cyclopropyl]-2-trifluoromethyl-benzamide] |  |  | 133 to 136 °C
Cn1cc(C(=O)N[C@@H]2C[C@@H]2c2ccc(F)cc2)c(C(F)F)n1 (relative stereo) [Compound 67.002, 3-difluoromethyl-1-methyl-1H-pyrazole-4-carboxylic acid [(cis)-2-(4-fluoro-phenyl)-cyclopropyl]-amide] |  |  | 141 to 143 °C
C[C@]1(c2ccc(Cl)cc2)CC1NC(=O)c1c(F)cccc1F (mixture of isomers) [Compound 68.009, N-[(1R,2R)-2-(4-chlorophenyl)-2-methyl-cyclopropyl]-2,6-difluoro-benzamide] |  |  | 140 to 142 °C
O=C(N[C@@H]1C[C@@H]1c1ccc(F)cc1)c1ccccc1C(F)(F)F (relative stereo) [Compound 67-003, N-[cis-2-(4-Fluoro-Phenyl)-Cyclopropyl]-2-Trifluoromethyl-benzamide] |  |  | 140 to 142 °C and 139 to 140 °C
C[C@H]1C(c2ccc(Cl)cc2)[C@@H]1NC(=O)c1ccccc1C(F)(F)F (mixture of isomers) [Compound 68.008, N-[(1R,2R,3S)-2-(4-chlorophenyl)-3-methyl-cyclopropyl]-2-(trifluoromethyl)benzamide] |  |  | 167 to 169 °C
O=C(N[C@@H]1CC1c1ccc(Cl)cc1Cl)c1c(F)cccc1F (stereo partly shown) [Compound 67-016] | 81% | 96% | 179 to 182 °C
